Test results from the NIST ThermoML archive (doi:10.1016/j.jct.2018.07.029).
Values joined by “and” are separate entries in the source; they are usually repeats but may differ in a detail not shown here. Equal entries are not always repeated. Numbers after ± are expanded uncertainties.

Settings: Liquid, Transpiration method

SMILES: CCOC(=O)C(C)O (racemic) [DL-ethyl lactate]
- vapor or sublimation pressure (274.6 K): 0.0432 ± 0.0028 kPa
- vapor or sublimation pressure (276.6 K): 0.0506 ± 0.0033 kPa
- vapor or sublimation pressure (279.6 K): 0.0659 ± 0.0042 kPa
- vapor or sublimation pressure (281.4 K): 0.0743 ± 0.0048 kPa
- vapor or sublimation pressure (283.6 K): 0.0901 ± 0.0057 kPa
- vapor or sublimation pressure (284.6 K): 0.095 ± 0.006 kPa
- vapor or sublimation pressure (285.8 K): 0.1032 ± 0.0067 kPa
- vapor or sublimation pressure (287.6 K): 0.1266 ± 0.0081 kPa and 0.1265 ± 0.0081 kPa
- vapor or sublimation pressure (288.4 K): 0.1302 ± 0.0082 kPa
- vapor or sublimation pressure (290.2 K): 0.1492 ± 0.0094 kPa
- vapor or sublimation pressure (290.3 K): 0.1456 ± 0.0093 kPa
- vapor or sublimation pressure (291.1 K): 0.162 ± 0.01 kPa
- vapor or sublimation pressure (293.5 K): 0.1923 ± 0.012 kPa
- vapor or sublimation pressure (296.4 K): 0.2396 ± 0.015 kPa
- vapor or sublimation pressure (298.5 K): 0.2828 ± 0.018 kPa
- vapor or sublimation pressure (301.5 K): 0.3655 ± 0.023 kPa
- vapor or sublimation pressure (302.5 K): 0.3751 ± 0.024 kPa
- vapor or sublimation pressure (304.5 K): 0.4491 ± 0.028 kPa
- vapor or sublimation pressure (305.3 K): 0.4793 ± 0.03 kPa
- vapor or sublimation pressure (307.2 K): 0.5251 ± 0.033 kPa
- vapor or sublimation pressure (308.2 K): 0.5766 ± 0.036 kPa
- vapor or sublimation pressure (310.1 K): 0.6332 ± 0.039 kPa and 0.6327 ± 0.039 kPa
- vapor or sublimation pressure (311.3 K): 0.6892 ± 0.043 kPa

SMILES: CCCCOC(=O)C(C)O (stereo not given) [butyl 2-hydroxypropanoate]
- vapor or sublimation pressure (273.6 K): 0.00576 ± 0.00045 kPa
- vapor or sublimation pressure (274.1 K): 0.00627 ± 0.00047 kPa
- vapor or sublimation pressure (276.6 K): 0.00823 ± 0.00056 kPa
- vapor or sublimation pressure (277.2 K): 0.00868 ± 0.00058 kPa
- vapor or sublimation pressure (279.2 K): 0.00996 ± 0.00066 kPa
- vapor or sublimation pressure (280.7 K): 0.0112 ± 0.0008 kPa
- vapor or sublimation pressure (281.8 K): 0.0133 ± 0.001 kPa
- vapor or sublimation pressure (283.2 K): 0.0141 ± 0.001 kPa
- vapor or sublimation pressure (285.4 K): 0.0178 ± 0.0012 kPa
- vapor or sublimation pressure (287.3 K): 0.0215 ± 0.0015 kPa
- vapor or sublimation pressure (290.3 K): 0.0272 ± 0.0018 kPa
- vapor or sublimation pressure (291.8 K): 0.0324 ± 0.0021 kPa
- vapor or sublimation pressure (293.3 K): 0.0375 ± 0.0025 kPa
- vapor or sublimation pressure (296.2 K): 0.0442 ± 0.0028 kPa
- vapor or sublimation pressure (299.2 K): 0.0601 ± 0.0038 kPa
- vapor or sublimation pressure (302.2 K): 0.0712 ± 0.0046 kPa
- vapor or sublimation pressure (305.1 K): 0.0952 ± 0.006 kPa
- vapor or sublimation pressure (308.1 K): 0.1148 ± 0.0088 kPa
- vapor or sublimation pressure (308.5 K): 0.1253 ± 0.0094 kPa
- vapor or sublimation pressure (311 K): 0.1483 ± 0.0092 kPa
- vapor or sublimation pressure (313 K): 0.1639 ± 0.01 kPa
- vapor or sublimation pressure (314.5 K): 0.1944 ± 0.012 kPa
- vapor or sublimation pressure (317 K): 0.2271 ± 0.014 kPa
- vapor or sublimation pressure (318.9 K): 0.2521 ± 0.016 kPa
- vapor or sublimation pressure (322.9 K): 0.3526 ± 0.022 kPa

SMILES: CCOC(=O)[C@@H](C)O [ethyl D-lactate]
- vapor or sublimation pressure (274.4 K): 0.0419 ± 0.0028 kPa
- vapor or sublimation pressure (276.4 K): 0.0495 ± 0.0031 kPa
- vapor or sublimation pressure (278.2 K): 0.0568 ± 0.0036 kPa
- vapor or sublimation pressure (280.3 K): 0.0665 ± 0.0042 kPa
- vapor or sublimation pressure (282.3 K): 0.0765 ± 0.0048 kPa
- vapor or sublimation pressure (283.2 K): 0.0834 ± 0.0053 kPa
- vapor or sublimation pressure (285.4 K): 0.0995 ± 0.0063 kPa
- vapor or sublimation pressure (286.2 K): 0.1081 ± 0.0069 kPa
- vapor or sublimation pressure (289.2 K): 0.1358 ± 0.0086 kPa
- vapor or sublimation pressure (291.3 K): 0.1583 ± 0.0099 kPa
- vapor or sublimation pressure (293.2 K): 0.1868 ± 0.012 kPa
- vapor or sublimation pressure (295.2 K): 0.2114 ± 0.013 kPa
- vapor or sublimation pressure (297.3 K): 0.2551 ± 0.016 kPa
- vapor or sublimation pressure (298.4 K): 0.2762 ± 0.017 kPa and 0.2718 ± 0.017 kPa
- vapor or sublimation pressure (299.2 K): 0.2886 ± 0.018 kPa
- vapor or sublimation pressure (301.3 K): 0.3466 ± 0.022 kPa
- vapor or sublimation pressure (303.2 K): 0.3937 ± 0.025 kPa
- vapor or sublimation pressure (305.2 K): 0.4603 ± 0.029 kPa
- vapor or sublimation pressure (306.2 K): 0.479 ± 0.03 kPa
- vapor or sublimation pressure (307.3 K): 0.5225 ± 0.033 kPa
- vapor or sublimation pressure (308.2 K): 0.5581 ± 0.035 kPa
- vapor or sublimation pressure (308.3 K): 0.5768 ± 0.036 kPa
- vapor or sublimation pressure (310.3 K): 0.6462 ± 0.041 kPa
- vapor or sublimation pressure (311.3 K): 0.7011 ± 0.044 kPa
- vapor or sublimation pressure (313.2 K): 0.7624 ± 0.047 kPa
- vapor or sublimation pressure (314.2 K): 0.8127 ± 0.051 kPa
- vapor or sublimation pressure (316.3 K): 0.9517 ± 0.059 kPa
- vapor or sublimation pressure (318.2 K): 1.048 ± 0.065 kPa

SMILES: CC(C)OC(=O)[C@H](C)O [isopropyl (S)-2-hydroxypropionate]
- vapor or sublimation pressure (283.4 K): 0.0862 ± 0.0056 kPa
- vapor or sublimation pressure (288.3 K): 0.1239 ± 0.0078 kPa
- vapor or sublimation pressure (293.3 K): 0.1774 ± 0.011 kPa
- vapor or sublimation pressure (298.3 K): 0.2401 ± 0.015 kPa
- vapor or sublimation pressure (303.2 K): 0.3239 ± 0.02 kPa
- vapor or sublimation pressure (306.8 K): 0.4055 ± 0.025 kPa

SMILES: CCCCCOC(=O)C(C)O (stereo not given) [pentyl 2-hydroxypropanoate]
- vapor or sublimation pressure (303.4 K): 0.026 ± 0.0017 kPa
- vapor or sublimation pressure (305.3 K): 0.0299 ± 0.002 kPa
- vapor or sublimation pressure (307.3 K): 0.038 ± 0.0023 kPa
- vapor or sublimation pressure (309.3 K): 0.0421 ± 0.0027 kPa
- vapor or sublimation pressure (311.4 K): 0.0517 ± 0.0033 kPa
- vapor or sublimation pressure (313.3 K): 0.0565 ± 0.0036 kPa
- vapor or sublimation pressure (315.4 K): 0.0714 ± 0.0036 kPa
- vapor or sublimation pressure (317.4 K): 0.0833 ± 0.0053 kPa
- vapor or sublimation pressure (319.4 K): 0.0946 ± 0.006 kPa
- vapor or sublimation pressure (321.4 K): 0.1069 ± 0.0068 kPa
- vapor or sublimation pressure (323.4 K): 0.1269 ± 0.008 kPa
- vapor or sublimation pressure (325.4 K): 0.1418 ± 0.009 kPa
- vapor or sublimation pressure (327.4 K): 0.1665 ± 0.011 kPa
- vapor or sublimation pressure (329.4 K): 0.1855 ± 0.012 kPa
- vapor or sublimation pressure (331.3 K): 0.2174 ± 0.014 kPa
- vapor or sublimation pressure (333.3 K): 0.2476 ± 0.015 kPa
- vapor or sublimation pressure (335.3 K): 0.2794 ± 0.018 kPa
- vapor or sublimation pressure (337.3 K): 0.3145 ± 0.02 kPa
- vapor or sublimation pressure (339.3 K): 0.3534 ± 0.022 kPa
- vapor or sublimation pressure (341.3 K): 0.4164 ± 0.026 kPa
- vapor or sublimation pressure (343.2 K): 0.4684 ± 0.029 kPa

SMILES: CCCOC(=O)C(C)O (stereo not given) [propyl 2-hydroxypropanoate]
- vapor or sublimation pressure (273.5 K): 0.0152 ± 0.001 kPa
- vapor or sublimation pressure (274.6 K): 0.0171 ± 0.001 kPa
- vapor or sublimation pressure (276.2 K): 0.019 ± 0.0012 kPa
- vapor or sublimation pressure (277.7 K): 0.0222 ± 0.0015 kPa
- vapor or sublimation pressure (279.9 K): 0.0274 ± 0.0018 kPa
- vapor or sublimation pressure (282.1 K): 0.0332 ± 0.002 kPa
- vapor or sublimation pressure (283.3 K): 0.0359 ± 0.0023 kPa
- vapor or sublimation pressure (286.2 K): 0.0489 ± 0.0031 kPa and 0.048 ± 0.0031 kPa
- vapor or sublimation pressure (287.8 K): 0.055 ± 0.0035 kPa
- vapor or sublimation pressure (290.3 K): 0.0664 ± 0.0043 kPa
- vapor or sublimation pressure (292.3 K): 0.0793 ± 0.005 kPa
- vapor or sublimation pressure (294.3 K): 0.09 ± 0.0058 kPa
- vapor or sublimation pressure (298.2 K): 0.1194 ± 0.0076 kPa
- vapor or sublimation pressure (299.2 K): 0.1376 ± 0.0089 kPa and 0.1392 ± 0.0088 kPa
- vapor or sublimation pressure (301.2 K): 0.1565 ± 0.0098 kPa
- vapor or sublimation pressure (301.4 K): 0.1625 ± 0.01 kPa
- vapor or sublimation pressure (303.3 K): 0.1866 ± 0.012 kPa
- vapor or sublimation pressure (304.2 K): 0.1915 ± 0.012 kPa
- vapor or sublimation pressure (305.3 K): 0.2068 ± 0.013 kPa
- vapor or sublimation pressure (307.9 K): 0.268 ± 0.017 kPa
- vapor or sublimation pressure (308.1 K): 0.256 ± 0.016 kPa
- vapor or sublimation pressure (310.3 K): 0.3053 ± 0.019 kPa
- vapor or sublimation pressure (312.1 K): 0.3377 ± 0.021 kPa
- vapor or sublimation pressure (313.4 K): 0.3713 ± 0.023 kPa
- vapor or sublimation pressure (313.6 K): 0.3614 ± 0.023 kPa
- vapor or sublimation pressure (315.4 K): 0.4264 ± 0.027 kPa
- vapor or sublimation pressure (316 K): 0.4342 ± 0.027 kPa
- vapor or sublimation pressure (317 K): 0.4541 ± 0.029 kPa
- vapor or sublimation pressure (317.4 K): 0.4789 ± 0.03 kPa
- vapor or sublimation pressure (319.4 K): 0.5467 ± 0.034 kPa
- vapor or sublimation pressure (320 K): 0.5661 ± 0.035 kPa
- vapor or sublimation pressure (321.4 K): 0.6113 ± 0.038 kPa
- vapor or sublimation pressure (323 K): 0.6633 ± 0.041 kPa
- vapor or sublimation pressure (323.4 K): 0.7043 ± 0.044 kPa
- vapor or sublimation pressure (325.4 K): 0.8342 ± 0.052 kPa
- vapor or sublimation pressure (327.3 K): 0.9235 ± 0.058 kPa
- vapor or sublimation pressure (330.3 K): 1.079 ± 0.067 kPa
